Data as given in ChEMBL document CHEMBL1201862, “PubChem BioAssay data set” (2004).
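1) Cells in 96-well plates. 2) Compound, 48 h, 5 concentrations. 3) Linear interpolation between surrounding doses. 4) Unreached endpoint = highest concentration. Abbreviation: GI50, concentration required for 50% inhibition of growth.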 The source made the active and inactive calls. No stated cut-off is given here; in the data, active = GI50 up to about 1.1 µM and inactive = higher.

Experiments:
Assay in all cases: DTP human tumour cell line panel, 48 h
IGROV-1 = test system: IGROV-1
DU-145 = test system: DU-145
M14 = test system: M14
HT-29 = test system: HT-29
OVCAR-3 = test system: OVCAR-3
LOX IMVI = test system: LOX IMVI
NCI-H23 = test system: NCI-H23
HCC 2998 = test system: HCC 2998
PC-3 = test system: PC-3
SN12C = test system: SN12C
MCF7 = test system: MCF7
U-251 = test system: U-251
SF-268 = test system: SF-268
SF-539 = test system: SF-539
UACC-62 = test system: UACC-62
HL-60 = test system: HL-60
SK-MEL-28 = test system: SK-MEL-28
RXF 393 = test system: RXF 393
SW-620 = test system: SW-620
OVCAR-8 = test system: OVCAR-8
HCT-116 = test system: HCT-116
TK-10 = test system: TK-10
SK-OV-3 = test system: SK-OV-3
OVCAR-4 = test system: OVCAR-4
CAKI-1 = test system: CAKI-1
MDA-MB-231 = test system: MDA-MB-231
HCT-15 = test system: HCT-15
EKVX = test system: EKVX
NCI-H226 = test system: NCI-H226
SR = test system: SR
NCI-H522 = test system: NCI-H522
MOLT-4 = test system: MOLT-4
OVCAR-5 = test system: OVCAR-5
HOP-92 = test system: HOP-92
UACC-257 = test system: UACC-257
786-0 = test system: 786-0
T47D = test system: T47D
ACHN = test system: ACHN
BT-549 = test system: BT-549
KM12 = test system: KM12
MDA-N = test system: MDA-N
NCI/ADR-RES = test system: NCI/ADR-RES
NCI-H460 = test system: NCI-H460
COLO 205 = test system: COLO 205
K562 = test system: K562
Hs-578T = test system: Hs-578T
SNB-75 = test system: SNB-75
CCRF-CEM = test system: CCRF-CEM
SF-295 = test system: SF-295
A549 = test system: A549
RPMI-8226 = test system: RPMI-8226
UO-31 = test system: UO-31
Malme-3M = test system: Malme-3M
A498 = test system: A498
MDA-MB-435 = test system: MDA-MB-435
HOP-62 = test system: HOP-62
SNB-19 = test system: SNB-19
SK-MEL-5 = test system: SK-MEL-5
SK-MEL-2 = test system: SK-MEL-2

Measured: GI50

CC(=O)CC12NC(=O)N(C)N=C1N(C)C(=O)N(C)C2=O (centres undefined)
57.7 µM: HCT-15
inactive: IGROV-1 > 100 µM | DU-145 > 100 µM | M14 73.5 µM | HT-29 35.9 µM | OVCAR-3 34.8 µM | LOX IMVI 19.8 µM | NCI-H23 38.7 µM | HCC 2998 82.8 µM | PC-3 30.8 µM | SN12C 33.1 µM | MCF7 41.8 µM | U-251 34.4 µM | SF-268 78.2 µM | SF-539 25.7 µM | UACC-62 23.9 µM | HL-60 25.9 µM | SK-MEL-28 57.3 µM | RXF 393 68.1 µM | SW-620 33.9 µM | OVCAR-8 32.1 µM | HCT-116 35.7 µM | TK-10 > 100 µM | SK-OV-3 > 100 µM | OVCAR-4 71.8 µM | CAKI-1 > 100 µM | MDA-MB-231 43 µM | EKVX > 100 µM | NCI-H226 > 100 µM | SR 63.7 µM | NCI-H522 37.7 µM | MOLT-4 44.8 µM | OVCAR-5 > 100 µM | HOP-92 95.1 µM | UACC-257 18.6 µM | 786-0 91 µM | T47D 30.8 µM | ACHN 74.6 µM | BT-549 > 100 µM | KM12 52.8 µM | MDA-N 22.3 µM | NCI/ADR-RES 29.4 µM | NCI-H460 65.9 µM | COLO 205 52.4 µM | K562 40.1 µM | Hs-578T > 100 µM | SNB-75 68.1 µM | CCRF-CEM 39.2 µM | SF-295 27.4 µM | A549 > 100 µM | RPMI-8226 58.1 µM | UO-31 > 100 µM | Malme-3M 13.4 µM | A498 31.9 µM | MDA-MB-435 17 µM | HOP-62 51.6 µM | SNB-19 > 10 µM

Cc1cc2c(cc1C)[n+]([O-])c(C(=O)N1CCN(c3ccc([N+](=O)[O-])cc3)CC1)c(C)[n+]2[O-]
77.6 µM: HCT-15
inactive: IGROV-1 27.6 µM | DU-145 29.5 µM | M14 32.5 µM | HT-29 > 100 µM | OVCAR-3 > 100 µM | LOX IMVI 90.2 µM | NCI-H23 26.5 µM | HCC 2998 26.8 µM | PC-3 93.3 µM | SN12C 63.7 µM | MCF7 > 100 µM | SK-MEL-5 74.6 µM | U-251 11.9 µM | SF-268 19 µM | SF-539 17.7 µM | UACC-62 41.9 µM | HL-60 > 100 µM | SK-MEL-28 > 100 µM | RXF 393 14.4 µM | SW-620 > 100 µM | OVCAR-8 27.5 µM | HCT-116 28.9 µM | TK-10 18.1 µM | SK-OV-3 18.2 µM | OVCAR-4 > 100 µM | CAKI-1 > 100 µM | MDA-MB-231 21.8 µM | EKVX 24.4 µM | SR > 100 µM | NCI-H522 75.3 µM | MOLT-4 > 100 µM | OVCAR-5 62.8 µM | HOP-92 23.6 µM | UACC-257 > 100 µM | 786-0 14.3 µM | T47D 63.2 µM | ACHN 2.84 µM | BT-549 22.6 µM | KM12 > 100 µM | MDA-N > 100 µM | NCI/ADR-RES > 100 µM | NCI-H460 22.9 µM | COLO 205 > 100 µM | K562 > 100 µM | Hs-578T 96.2 µM | CCRF-CEM > 100 µM | SF-295 16.1 µM | A549 82.2 µM | SK-MEL-2 38.5 µM | RPMI-8226 > 100 µM | UO-31 28.5 µM | Malme-3M > 100 µM | A498 27.2 µM | MDA-MB-435 > 100 µM | HOP-62 12.8 µM | SNB-19 64.9 µM

C=CCOc1ccc(C2c3c(n[nH]c3O)CC(C)(O)C2C(=O)OC)cc1OC (centres undefined)
> 100 µM: HCT-15
inactive: IGROV-1 > 100 µM | DU-145 > 100 µM | M14 > 100 µM | HT-29 > 100 µM | OVCAR-3 > 100 µM | LOX IMVI > 100 µM | NCI-H23 > 100 µM | HCC 2998 > 100 µM | PC-3 > 100 µM | SN12C > 100 µM | MCF7 > 100 µM | SK-MEL-5 > 100 µM | U-251 > 100 µM | SF-268 > 100 µM | SF-539 > 100 µM | UACC-62 > 100 µM | HL-60 > 100 µM | SK-MEL-28 > 100 µM | SW-620 > 100 µM | OVCAR-8 > 100 µM | HCT-116 > 100 µM | TK-10 > 100 µM | OVCAR-4 > 100 µM | CAKI-1 > 100 µM | MDA-MB-231 > 100 µM | EKVX > 100 µM | SR > 100 µM | NCI-H522 > 100 µM | MOLT-4 > 100 µM | OVCAR-5 > 100 µM | HOP-92 > 100 µM | UACC-257 > 100 µM | 786-0 > 100 µM | T47D > 100 µM | ACHN > 100 µM | BT-549 > 100 µM | KM12 > 100 µM | MDA-N > 100 µM | NCI/ADR-RES > 100 µM | NCI-H460 > 100 µM | COLO 205 > 100 µM | Hs-578T > 100 µM | SNB-75 > 100 µM | CCRF-CEM > 100 µM | SF-295 > 100 µM | A549 > 100 µM | SK-MEL-2 > 100 µM | RPMI-8226 > 100 µM | UO-31 > 100 µM | Malme-3M > 100 µM | A498 > 100 µM | MDA-MB-435 > 100 µM | HOP-62 > 100 µM | SNB-19 > 100 µM
